Measurements taken from article PMC6493276, “Quantification of 1D, a novel derivative of curcumin with potential antitumor activity, in rat plasma by liquid chromatography-tandem mass spectrometry: application to a pharmacokinetic study in rats” (Pharmaceutical Biology, 2019).

How the values were obtained:
[1] = tested on: HT29 cells; design: method as in Tong et al. [2016]; conditions: treatment for 48 h, ref Tong et al. [2016]; cited from earlier work
[2] = tested on: HJ1299 cells; design: method as in Tong et al. [2016]; conditions: treatment for 48 h, ref Tong et al. [2016]; cited from earlier work
[3] = Stability of 1 D in rat plasma under various storage conditions; assay type: in vitro ADME; conditions: for Accuracy / Measured concentration (mean ± SD): n = 5
Protocol: The stability of 1 D in rat plasma was evaluated in five replicates at three QC levels under various storage conditions. […] Short-term and long-term stability were evaluated by storing plasma samples at room temperature for 6 h and −20 °C for 1 month before sample preparation. Freeze-thaw stability of QC samples was assessed after three freeze-thaw cycles (−20 to 25 °C). Autosampler stability was evaluated by keeping the extracted plasma samples in the autosampler for 24 h before analysis. Samples were considered to be stable if assay values were within the acceptable limits of accuracy (±15%) and precision (15% RSD).

[4] = Pharmacokinetic study in rats after single intravenous administration; assay type: in vivo; conditions: male, Sprague-Dawley, rat, plasma
Protocol: The applicability of the developed bioanalytical LC-MS/MS method was evaluated by quantitative determination of 1 D in rat plasma after single intravenous administration. All experimental procedures and animal care were performed following approval from the Ethic Committee of Laboratory Animals of the Affiliated Hospital of Qingdao University. Six male Sprague–Dawley rats, weighing 200 ± 15 g, were obtained from Beijing Vital River Experimental Animal Co. Ltd (Beijing, China). The animals were quarantined for 1 week prior to the study and were maintained on a 12 h light/12 h dark cycle at 22 ± 2 °C and at 50 ± 10% relative humidity. The rodents were given a commercial rat chow and water ad libitum. An intravenous dose of 5 mg/kg was selected based on our previous toxicological and pharmacodynamic studies in rats (unpublished data). The administration solution was prepared by dissolving 1 D in PEG400: PG400: DMSO: saline (30: 30: 1: 39, v/v/v/v) to give a concentration of 2 mg/mL. After fasting overnight, rats were given the prepared administration solution at 5 mg/kg via the tail vein. Blood samples (0.2 mL) were collected into heparinized tubes by retro-orbital puncture at 0 (pre-dose), 5, 10, 20, 30, and 45 min, and 1, 1.5, 2, 4, 8, 12, and 24 h after dosing. Plasma was separated by centrifugation at 4500 rpm for 10 min and stored at −20 °C until analysis. The pharmacokinetic parameters including area under the concentration-time curve (AUC), apparent volume of distribution (Vz), elimination half-life (t1/2), and clearance (CLz) were calculated by a non-compartmental analysis method using the DAS 3.0.2 pharmacokinetic programme. As observable parameters, the maximum plasma concentration (Cmax) and the time to reach the maximum concentration (Tmax) were obtained directly.

[5] = tested on: A549 cells; design: method as in Tong et al. [2016]; conditions: treatment for 48 h, ref Tong et al. [2016]; cited from earlier work
[6] = tested on: HCT116 cells; design: method as in Tong et al. [2016]; conditions: treatment for 48 h, ref Tong et al. [2016]; cited from earlier work
[7] = extracted rat plasma, spiked 10 ng/mL, autosampler for 24 h
[8] = extracted rat plasma, spiked 100 ng/mL, autosampler for 24 h
[9] = extracted rat plasma, spiked 500 ng/mL, autosampler for 24 h
[10] = rat plasma, spiked 10 ng/mL, 4 weeks at −20 °C
[11] = rat plasma, spiked 10 ng/mL, 6 h at 25 °C
[12] = rat plasma, spiked 10 ng/mL, three freeze-thaw cycles
[13] = rat plasma, spiked 100 ng/mL, 4 weeks at −20 °C
[14] = rat plasma, spiked 100 ng/mL, 6 h at 25 °C
[15] = rat plasma, spiked 100 ng/mL, three freeze-thaw cycles
[16] = rat plasma, spiked 500 ng/mL, 4 weeks at −20 °C
[17] = rat plasma, spiked 500 ng/mL, 6 h at 25 °C
[18] = rat plasma, spiked 500 ng/mL, three freeze-thaw cycles
[19] = single intravenous 5 mg/kg, n = 6

Accuracy [3, 7]: 103.6%
Measured concentration (mean ± SD) [3, 7]: 10.36 ± 0.75 ng/mL
Accuracy [3, 8]: 101.5%
Measured concentration (mean ± SD) [3, 8]: 101.51 ± 6.43 ng/mL
Accuracy [3, 9]: 96.2%
Measured concentration (mean ± SD) [3, 9]: 481.19 ± 42.98 ng/mL
Accuracy [3, 10]: 106.1%
Measured concentration (mean ± SD) [3, 10]: 10.61 ± 0.55 ng/mL
Accuracy [3, 11]: 102.7%
Measured concentration (mean ± SD) [3, 11]: 10.27 ± 0.56 ng/mL
Accuracy [3, 12]: 101.2%
Measured concentration (mean ± SD) [3, 12]: 10.12 ± 0.66 ng/mL
Accuracy [3, 13]: 98.4%
Measured concentration (mean ± SD) [3, 13]: 98.39 ± 7.52 ng/mL
Accuracy [3, 14]: 104.7%
Measured concentration (mean ± SD) [3, 14]: 104.71 ± 5.16 ng/mL
Accuracy [3, 15]: 99.4%
Measured concentration (mean ± SD) [3, 15]: 99.36 ± 6.92 ng/mL
Accuracy [3, 16]: 103.7%
Measured concentration (mean ± SD) [3, 16]: 518.57 ± 43.30 ng/mL
Accuracy [3, 17]: 106.1%
Measured concentration (mean ± SD) [3, 17]: 530.28 ± 34.32 ng/mL
Accuracy [3, 18]: 100.8%
Measured concentration (mean ± SD) [3, 18]: 503.88 ± 33.79 ng/mL
Changes in concentrations after storage (stability in rat plasma) ([3]; room temperature 6 h, −20 °C 1 month, autosampler 24 h, three freeze-thaw cycles): No significant changes
AUC(0-t) ([4]; 5 mg/kg, intravenous administration, non-compartmental (abstract)): 807 ng·h/mL
Cmax [4, 19]: 610 ng/mL
Tmax [4, 19]: 4.8 min
AUC(0-inf) ([4]; single intravenous 5 mg/kg, n = 6, non-compartmental): 853 ng·h/mL
clearance ([4]; single intravenous 5 mg/kg, n = 6, read-out: CLz (clearance) (converted)): 106 mL/min/kg
MRT last ([4]; single intravenous 5 mg/kg, n = 6, read-out: MRT(0−t)): 3.4 h
MRT inf ([4]; single intravenous 5 mg/kg, n = 6, read-out: MRT(0−∞)): 4.7 h
Vd ([4]; single intravenous 5 mg/kg, n = 6, read-out: Vz (apparent volume of distribution)): 46.6 L/kg
half-life ([4]; single intravenous 5 mg/kg, n = 6, read-out: t1/2 (elimination half-life) (converted)): 4.92 h
SMILES: Br.COc1ccc(/C=C/c2cc(/C=C/c3ccc(OC)cc3)nc(OCCCCSC(=N)N)n2)cc1 [1 D, (E,E)-4-(4,6-bis(4-methoxystyryl)pyrimidin-2-yloxy)butyl carbamimidothioate hydrobromide]
IC50 [1]: 0.79 µM
IC50 [2]: 0.92 µM
IC50 [5]: 0.99 µM
IC50 [6]: 1 µM
